From patent US10537607B2, “Treatment of autoimmune and/or inflammatory disease using novel caveolin modulators” (E&B TECHNOLOGIES LLC, priority 2013, dated 2020)
“Also recorded” adds a separate entry of the source.

Experiments:
[1] = system: mustard oil-induced vascular permeability; assay type: in vivo, mouse; conditions: mice, one-hour pretreatment, AP-Cav 1 mg/kg or same molar dose, vs carrier peptide alone, 30 min
Protocol: Plasma leakage in mouse skin was studied using the Miles assay as previously described. Briefly, male Swiss mice (30-35 g) were anesthetized and injected with Evans blue (30 mg/kg in PBS; Sigma). […] (5% in mineral oil), an analog of mustard oil (Pierce, Rockford, Ill.) was applied on the right ear with a cotton tip. The left ear was used as a control and was treated with mineral oil alone. After 30 minutes, the anesthetized animals were sacrificed, perfused, ears were removed, dried and weighed. Evans blue was extracted from the ears with formamide and quantified spectrophotometrically at 595 nm.

[2] = system: VEGF-induced NO release (eNOS activity) in BAEC; assay: VEGF-induced NO release in cultured BAEC; assay type: cell-based, bovine; conditions: for effect on VEGF-induced NO release (in words) / inhibition of VEGF-induced NO release: 6 h pretreatment; for effect on basal (unstimulated) NO release: six-hour pretreatment, NO-specific chemiluminescence
Protocol: VEGF-induced NO release experiments were performed as previously described.
[…] Media was removed and fresh serum-free DMEM was added, with or without VEGF (10^−9 M) for 30 minutes. Media was collected, cells were trypsinized and counted, and nitrites levels in the supernatant were determined by using a Sievers NO chemiluminescence analyzer.

[3] = system: dextran sulfate sodium colitis; assay: Dextran sulfate sodium model of inflammatory bowel disease; assay type: in vivo, mouse; conditions: C57B1/6 mice, DSS 2% in drinking water, 2.5 mg/kg i.p. daily from day 1
Protocol: C57B1/6 mice are fed dextran sulfate sodium 2% in the drinking water for 9 days. Body weights are measured daily. At the end of 9 days, mice are sacrificed and the first distal centimeter of the colon subject to histopathological analysis. Sections are scored according to the scoring system described in Jirkof et al., Burrowing is a sensitive behavioral assay for monitoring general wellbeing during dextran sulfate sodium colitis in laboratory mice. Laboratory animals. 2013, 47(4):274-83. doi: 10.1177/0023677213493409. PubMed PMID:23828853.

multiple sclerosis = assay: Treatment of patients diagnosed with multiple sclerosis; assay type: in vivo, human; conditions: 80 mg per day by subcutaneous injection
Protocol: Patients diagnosed with MS, including relapsing remitting and primary progressive types, are treated with Endo-5 CavAB (SEQ ID NO.1/SEQ ID NO. 6) (or other caveolin analog) at 80 mg per day by subcutaneous injection. […] The changes in the patient receiving the treatment are measured using the Multiple Sclerosis Functional Composite. See, e.g., the website of the National MS Society: Clinical Study Measures.

HUVEC = assay: CPP imaging of live HUVEC (pulse/chase epifluorescence microscopy); assay type: cell-based, human; conditions: for intracellular staining after pulse: carboxyfluorescein-Endo5 and rhodamine-AP, 10^−6M, 1 h at 37° C.; for intracellular staining after chase: two-hour chase in absence of CPP
Protocol: Freshly isolated HUVEC were grown in M199 media supplemented with glutamine, 10% FBS and endothelial cell growth supplement on Petri dishes with glass bottom. Since CPPs bind non-specifically to glass, the background fluorescence was reduced by pretreating glass-bottom Petri dishes with a blocking solution containing unlabelled AP and Endo5 for 30 minutes (5×10^−5 M) in colorless M199 media with 1% FBS.
After cell seeding, media was removed and carboxyfluorescin-labeled Endo5 and Rhodamine-labeled AP were added to cells (10^−5M) and cells were incubated at 37° C. and 5% CO2 for 1 hour (pulse). Media was removed, cells were rinsed once with warm culture media and peptide uptake was rapidly visualized on a Zess Axiovert inverted fluorescence microscope by performing a Z-stack of captured images followed by volume deconvolution (Openlab software). The new media was left on cells for an additional 2 hours (total 3 hours) to chase CPP localization, and cells were visualized again (chase).
In the present study, epifluorescence microscopy experiments were performed in live HUVEC to compare the uptake mechanism of Endo5 to AP. After blocking glass bottom Petri dishes with unlabeled AP and Endo5 to minimize non-specific binding of labeled peptides, freshly isolated HUVEC were grown to 50% confluent and labeled with a “pulse” of carboxyfluorescein-Endo5 and rhodamine-AP (10^−6M) for 1 h, rinsed, followed by a two-hour “chase” for a total of 3 hours.

BAEC = assay: Quantification of internalization of fluorophore-labelled peptides; assay type: cell-based, bovine; conditions: cultured endothelial cells
Protocol: Cultured BAEC were grown in 6-well plates until confluence was reached. Cells were washed and incubated in 1 mL of DMEM containing labeled peptides (10^−6 M) for 1, 2, 4 or 6 hours at 37° C., washed three times with cold PBS containing 0.1 M glycine (pH 4) to remove non-specific surface staining.
After complete media removal, cells were trypsinized, centrifuged and proteins were extracted by adding 150 μL of SDS-based or Triton X-100 lysis buffer. Membranes were removed by centrifugation, and internalized peptides were quantified by using a fluorescence plate reader (Perseptive Biosystems).
Cells incubated with peptides for 5 minutes and washed as described were used as basal surface staining. Linearity of both fluorophores used was determined by performing a concentration-fluorescence curve using lysis solution. Experiments with each fluorophore were performed individually to prevent cross-interference.

[4] = system: experimental autoimmune encephalitis; conditions: experimental model of autoimmune encephalitis; cited from earlier work
traumatic brain injury = assay: Traumatic brain injury, controlled cortical impact model; assay type: in vivo, rat; conditions: rats
Description: Sprague Dawley rats (10 week old) are anesthetized using 1-2% isoflurane and fixed in a stereotactic frame. The skull is surgically exposed and a craniectomy 2.5 mm in radius is made centered on coordinates −0.2 mm anterior and +0.2 mm lateral to midlineat the fronto-parietal cortex. A controlled cortical impactor (Pittsburgh Precision Instruments, Inc., Pittsburgh, Pa.) is used to deliver an impact using a velocity of 6.0 m/s and depth of 1.0 mm below the dura mater and duration of impact of 150 ms. The impactor is angled to impact the skull perpendicular to the brain at the point of impact. Animals are maintained at normal body temperature throughout the procedure. Following the impact, the incision is sutured and the animals are allowed to recover.
Neurological deficits are scored using the system of Clark assessed 24 and 48 hours post injury. See, Clark W et al., Citicoline treatment for experimental intracerebral hemorrhage in mice. Stroke; a journal of cerebral circulation. 1998; 29(10):2136-40. PubMed PMID: 9756595.
At 48 hours post TBI, rats are sacrificed and the brains sectioned and tissue processed for immunohistochemistry. […] See, Glushakov et al., Prostaglandin F2alpha FP receptor antagonist improves outcomes after experimental traumatic brain injury, Journal of neuroinflammation. 2013; 10(1):132. doi: 10.1186/1742-2094-10-132. PubMed PMID:24172576.

[5] = BAEC, peptide 10^−5 M, VEGF 10^−9 M 30 min

Endo5 (RRPPR) with cargo DGIWKASFTTFTVTKYWFYR, caveolin-1 amino acids 82-101, fused to its C-terminus (RRPPRDGIWKASFTTFTVTKYWFYR; listed as Homo sapiens) [Endo5-Cav]
inhibition of mustard oil-induced vascular leakage [1]: 58%
eNOS inhibition (VEGF-induced NO release), in words ([2]; BAEC, 10^−5 M, 4 hours pretreatment): complete eNOS inhibition
inhibition of VEGF-induced NO release after pretreatment with AP ([2]; BAEC, Endo5-Cav 10^−5 M 6 h, AP 5×10^−5 M pretreatment): 30%
inhibition of VEGF-induced NO release after pretreatment with Endo5 ([2]; BAEC, Endo5-Cav 10^−5 M 6 h, Endo5 5×10^−5 M pretreatment): 13%
fate of the inhibition of VEGF-induced NO release after pretreatment with either AP or Endo5 ([2]; BAEC, construct 10^−5 M 6 h, AP or Endo5 5×10^−5 M): partially prevented
effect on VEGF-induced NO release (in words) [2, 5]: completely impaired; also recorded: near-maximum effect; also recorded: completely blocked
inhibition of VEGF-induced NO release [2, 5]: 91%
effect on basal (unstimulated) NO release ([2]; BAEC, 10^−5 M): no significant effect
rate of uptake relative to AP-Cav ([2]; inferred from 2 h Endo5-Cav vs 6 h AP-Cav pretreatment, 10^−5 M): approximately three times

Endo5-CavAB: 19-mer: Endo5 fused to Cav AB domain (amino acids 82-95 of human caveolin-1); second generation cavtratin (RRPPRDGIWKASFTTFTVT; listed as Homo sapiens)
histopathologic score of the colon [3]: improve the histopathologic sore
weight loss at 9 days [3]: reduce the weight loss
symptoms of MS (motor function, gait) (multiple sclerosis): improves the symptoms of MS
inhibition of VEGF-induced NO release ([2]; BAEC, peptide 2×10^−6 M): 49%
effect on VEGF-induced NO release (in words) [2, 5]: completely blocked

RQIKIWFQNRRMKWKK (listed as Rattus norvegicus) [AP, 16-mer Antennapedia cell-permeable peptide, reference compound]
intracellular staining after pulse (HUVEC): diffuse punctate cytoplasmic staining
intracellular staining after chase (HUVEC): more concentrated rather than diffuse pattern
effect on VEGF-induced NO release (in words) [2, 5]: no significant effect
effect on basal (unstimulated) NO release ([2]; BAEC, 10^−5 M): no significant effect

RRPPR [Endo5, five-amino acid cell-permeable transport peptide]
rate of uptake / internalization relative to AP (BAEC): three times greater
intracellular staining after pulse (HUVEC): diffuse punctate cytoplasmic staining
intracellular staining after chase (HUVEC): more concentrated rather than diffuse pattern
effect on VEGF-induced NO release (in words) [2, 5]: no significant effect
effect on basal (unstimulated) NO release ([2]; BAEC, 10^−5 M): no significant effect

cavtratin: caveolin mimetic, a fusion peptide of a cell penetrating peptide to the caveolin scaffolding domain; first generation (RQIKIWFQNRRMKWKKDGIWKASFTTFTVTKYWFYR)
histopathologic score of the colon [3]: improve the histopathologic sore
weight loss at 9 days [3]: reduce the weight loss
blood brain barrier disruption [4]: inhibited
clinical score / functional deficits [4]: improve; also recorded: ameliorates
edema [4]: block
inflammatory cell (CD45+) invasion into the brain parenchyma [4]: block; also recorded: inhibited
neurological deficits (Clark score) (traumatic brain injury; 2.5 mg/kg i.p. immediately after TBI and at 24 hours, scored 24 and 48 hours post injury): reduces the observed neurological deficits
GFAP expression in the lesion penumbra (traumatic brain injury; 2.5 mg/kg i.p., 48 hours post TBI): reduces GFAP expression
